Assay results from article PMC4605843, “Cell-Penetrating Peptides Selectively Cross the Blood-Brain Barrier In Vivo” (PLoS ONE, 2015).
Like-named read-outs stand apart in the source and are kept apart here. Ends that are not written are not given here.

Assays:
BBB = details: after i.p. injection, fluorimetry; ref [41] of S1 Table; cited from earlier work
Description: page 6: Supplementary Information S1 Table.

brain [1] = details: cited from earlier work; for Kin: rat, in vivo
[2] = tested on: blood-brain barrier (BBB); experiment: Multiple time regression (MTR) analysis, blood-to-brain influx; type: in vivo, ICR-CD-1 mice
Method: Shortly, 200 μl of the radioiodinated CPP solution (30000 cpm/μl) was injected into the right jugular externalis vein of anesthetized ICR-CD-1 mice, which were then decapitated at 1, 3, 5, 10, 12.5 and 15 min post injection, with first and last time points performed in duplicate, after which brains were collected and measured for radioactivity using a gamma counter (Wallac Wizard 1470, Perkin Elmer). Shortly before decapitation, blood was collected from the left carotid artery, which was centrifuged (10000 g, 15 min at 21°C) in order to measure the radioactivity of blood and serum. Dermorphin and radioiodinated BSA were used as positive and negative control, respectively. The blood-to-brain entry during the experimental period of 15 min was evaluated by plotting the ratio of brain (Am(T)) and serum activity (Cp(T)), corrected for the brain weight and serum volume, respectively, versus the exposure time (Θ), expressing the theoretical steady state serum level of the iodinated peptide at a given serum concentration [37, 73]. The exposure time is calculated as the integral of the arterial serum radioactivity over time divided by the radioactivity at time t. The integral is calculated through the trapezoidal rule of the log-transformed data [73]. In the linear part of the curve, assuming a two-compartmental BBB model, data can be fitted using a linear model from which the unidirectional influx rate (Kin), also referred to as unidirectional blood to brain clearance K1 [46], and the initial brain distribution volume (Vi) can be determined using the following equation according to Gjedde and Patlak [37–40]: Am(T)/Cp(T)=Abrain(T)/Aserum(T)=Kin⋅Θ+Vi with Θ = ∫0TCp(t) ⋅ dt/Cp(T) (1)

[3] = tested on: brain parenchyma and capillaries; experiment: Capillary depletion method: brain parenchyma/capillary distribution; type: in vivo, ICR-CD-1 mice; details: mouse, in vivo, iv
Method: The capillary depletion method was used to evaluate the distribution of the peptide between the brain parenchyma and capillaries. In summary (see Materials and Methods in [45]), 200 μl of a radiolabeled peptide solution (10000 cpm/μl) was injected in the jugular externalis vein of two anesthetized ICR-CD-1 mice. Ten minutes after IV injection, mice were decapitated and brains were collected and measured for radioactivity. […] The resulting homogenate was weighed and centrifuged at 5400 g for 30 min at 4°C, resulting in a pellet, i.e. capillaries, and supernatant, i.e. parenchyma and fat tissue, which were weighed and measured in the gamma counter. […] Compartmental distribution was calculated as follows: Fractioncapillaries or parenchyma (%)=[…] or parenchyma/[…]×100 (4)

[4] = tested on: blood-brain barrier (BBB); experiment: Brain-to-blood transport (efflux) after intracerebroventricular injection; details: mouse; for t1/2,brain (half-time disappearance): in vivo
Method: Female, ICR-CD-1 mice (Harlan Laboratories, Venray, The Netherlands), aged 7 to 10 weeks and weighing 28–36 g, were used during the in vivo BBB transport experiments. All animal experiments were performed in accordance with the Ethical Committee principles of laboratory animal welfare. The protocol was approved by the Ethical Committee of the Faculty of Veterinary Science of Ghent University (Permit Numbers: 2009–052 and 2014–128). Prior to experiments, mice were anesthetized by intraperitoneal injection of a 40% urethane solution (3 g/kg) (Sigma-Aldrich, Diegem, Belgium).
For evaluation of the efflux of the peptides out of the brain, 1 μl of a radioiodinated peptide solution (25000 cpm/μl) was injected in the lateral ventricle of anesthetized ICR-CD-1 mice at a speed of 360 μl/h for 10 s using a syringe pump (KDS100, KR analytical, Cheshire, UK). […] The brain half-time disappearance (t1/2,brain) was calculated from the linear regression of the natural logarithm of the residual radioactivity in brain versus time as follows: t1/2,brain=ln(2)/kout (5) with kout defined as the efflux rate constant calculated as the absolute value of the slope of the linear regression, applying first order kinetics. An extensive description of the protocol can be found elsewhere.

[5] = tested on: blood-brain barrier (BBB); experiment: Regional variation in brain influx (MTR, dissected brain regions)
Method: The protocol of the multiple time regression (MTR) analysis to evaluate whether the peptides cross the BBB is described in detail elsewhere. […] Dermorphin and radioiodinated BSA were used as positive and negative control, respectively. […] The exposure time is calculated as the integral of the arterial serum radioactivity over time divided by the radioactivity at time t. The integral is calculated through the trapezoidal rule of the log-transformed data. In the linear part of the curve, assuming a two-compartmental BBB model, data can be fitted using a linear model from which the unidirectional influx rate (Kin), also referred to as unidirectional blood to brain clearance K1 [46], and the initial brain distribution volume (Vi) can be determined using the following equation according to Gjedde and Patlak: Am(T)/Cp(T)=Abrain(T)/Aserum(T)=Kin⋅Θ+Vi with Θ = ∫0TCp(t) ⋅ dt/Cp(T) (1)
Different dissected brain regions were weighed and measured in the gamma counter. The unidirectional influx and initial distribution volume of the iodinated peptides for the different brain regions are determined using Eq 1.
Generally, regression lines were computed using the least squares method. Regression lines of the ratio of the brain-to-serum radioactivity versus the exposure time obtained during the evaluation of the regional brain distribution and the used brain influx mechanism, were statistically compared using the Prism 6 software (GraphPad, La Jolla, USA).

[6] = tested on: blood-brain barrier (BBB); experiment: Classification of peptides according to their BBB influx
Description: This peptide is derived from the murine vascular endothelial (VE)-cadherin, located in the adherens junctions between the vascular endothelial cells, and constitutes the 13 cytosolic amino acids closest to the membrane and five amino acids from the C-terminus of the transmembrane region (615–632).

cellular uptake = tested on: cellular uptake; set-up: method as in Stalmans et al.[1]; details: cell-penetrating (CP-) response, quantitative expression of cellular influx; ref Stalmans et al.[1]; cited from earlier work
[7] = activity of the 68Ga-DOTA labeled peptide; ref [49]; cited from earlier work
Description: For pVEC and Tat 47–57, a very high liver concentration was observed compared to the other tissues, which can indicate metabolization, but also uptake of the peptides and their metabolites in hepatocytes.

[8] = tested on: blood-brain barrier (BBB); experiment: Saturability of brain influx: MTR with and without excess unlabeled peptide; set-up: species or system ICR-CD-1 mice; details: mouse, in vivo, iv
Method: This dose of 20 μg was determined based on the amount of peptide injected during a MTR experiment estimated based on the specific activity and taking into account the amount of non-radioactively iodinated peptide present in the injected dose. […] During this experiment, peptides are radiolabeled using a no-carrier added method in order that only radioactively labeled peptide was injected.

brain [9] = details: cited from earlier work
[10] = 15 min post IV injection of radiolabeled peptide, % injected dose, n = 2, ICR-CD-1 mice; described in words
brain [11] = details: mouse, in vivo; cited from earlier work
[12] = 125I-radioiodinated, IV, ICR-CD-1 mice, MTR 1-15 min, ± 65% confidence limits

VIP: cargo peptide VIP alone
Brain uptake efficiency (BBB): 0.78

Dalargin
Vd (brain [1]; in situ brain perfusion (single time) in rats, ref [2] of S1 Table): 16.7 µL/g

RRLSYSRRRF-NH2 [SynB3, short cationic cell-penetrating peptide]
K1 (unidirectional clearance, slope of the initial phase), biphasic model ([2]; mouse, in vivo, iv): 29.84 ± 8.42 µL/g/min
Kin (unidirectional influx rate), linear Gjedde-Patlak model ([2]; mouse, in vivo, iv): 5.63 ± 1.83 µL/g/min
Maximal ratio of brain-to-serum radioactivity ([2]; mouse, in vivo, iv): about 70 μl/g
Parenchymal fraction [3]: 77%
kout (efflux transfer constant) [4]: 0.05 ± 0.01 min⁻¹
t1/2,brain (half-time disappearance) [4]: 15 min
Difference in brain influx rates between the eight dissected brain regions ([5]; mouse, in vivo): no statistically significant difference
BBB influx class [6]: class 5
CP-response (cellular uptake): 0.126

YGRKKRRQRRR-NH2 [Tat 47–57, short cationic cell-penetrating peptide]
K1 (unidirectional clearance, slope of the initial phase), biphasic model [2, 12]: 13.50 ± 3.88 µL/g/min
K (net clearance, slope of the plateau phase), biphasic model ([2]; mouse, in vivo, iv): 0.27 ± 0.46 µL/g/min
Kin (unidirectional influx rate), linear Gjedde-Patlak model ([2]; mouse, in vivo, iv): 4.73 ± 1.23 µL/g/min
Parenchymal fraction [3]: 79%
kout (efflux transfer constant) [4]: 0.21 ± 0.08 min⁻¹
t1/2,brain (half-time disappearance) [4]: 3 min
BBB influx class [6]: class 5
CP-response (cellular uptake): 0.309

^68Ga-DOTA labeled pVEC: 68Ga-DOTA labeled pVEC of a literature study (TLLIILRRRIRKQAHAHS; also: 68Ga-DOTA label (site not given here); UniProt P55284 615-632, looked up, fragment)
(human) serum half-life [7]: a few hours

TP10
CP-response (cellular uptake): 1.641

LLIILRRRIRKQAHAHSK-NH2 [pVEC, cell-penetrating peptide derived from murine VE-cadherin (615–632); tested radioiodinated]
Kin (unidirectional influx rate), linear Gjedde-Patlak model ([2]; mouse, in vivo, iv): 6.02 ± 0.29 µL/g/min
Maximal ratio of brain-to-serum radioactivity ([2]; mouse, in vivo, iv): about 180 μl/g
Parenchymal fraction [3]: 80%
kout (efflux transfer constant) [4]: 0.10 ± 0.11 min⁻¹
Difference in brain influx rates between the eight dissected brain regions ([5]; mouse, in vivo): significantly differed
Kin, cerebellum ([5]; mouse, in vivo, iv): 5.61 [5.12, 6.10] μl/(g × min)
Kin, frontal cortex ([5]; mouse, in vivo, iv): 4.84 [4.66, 5.02] μl/(g × min)
Kin, hippocampus ([5]; mouse, in vivo, iv): 3.94 [3.51, 4.37] μl/(g × min)
Kin, midbrain ([5]; mouse, in vivo, iv): 5.32 [5.17, 5.46] μl/(g × min)
Kin, occipital and parietal cortex ([5]; mouse, in vivo, iv): 5.03 [4.73, 5.32] μl/(g × min)
Kin, pons medulla ([5]; mouse, in vivo, iv): 4.51 [3.87, 5.15] μl/(g × min)
Kin, striatum ([5]; mouse, in vivo, iv): 4.07 [3.77, 4.37] μl/(g × min)
Kin, thalamus and hypothalamus ([5]; mouse, in vivo, iv): 4.12 [3.86, 4.38] μl/(g × min)
Kin, whole brain ([5]; mouse, in vivo, iv): 6.04 [5.78, 6.30] μl/(g × min)
Vi, cerebellum ([5]; mouse, in vivo, iv): 21.02 [15.09, 26.95] μl/g
Vi, frontal cortex ([5]; mouse, in vivo, iv): 12.93 [10.77, 15.09] μl/g
Vi, hippocampus ([5]; mouse, in vivo, iv): 9.33 [4.13, 14.54] μl/g
Vi, midbrain ([5]; mouse, in vivo, iv): 13.88 [12.15, 15.62] μl/g
Vi, occipital and parietal cortex ([5]; mouse, in vivo, iv): 16.61 [13.02, 20.19] μl/g
Vi, pons medulla ([5]; mouse, in vivo, iv): 36.06 [28.34, 43.78] μl/g
Vi, striatum ([5]; mouse, in vivo, iv): 11.47 [7.81, 15.13] μl/g
Vi, thalamus and hypothalamus ([5]; mouse, in vivo, iv): 17.72 [11.58, 17.86] μl/g
Vi, whole brain ([5]; mouse, in vivo, iv): 24.37 [21.23, 27.51] μl/g
Vi with excess dose of unlabeled peptide [8]: 1 µL/g
BBB influx class [6]: class 5
CP-response (cellular uptake): 1.318

COc1cccc2c1C(=O)c1c(O)c3c(c(O)c1C2=O)C[C@@](O)(C(=O)CO)C[C@@H]3O[C@H]1C[C@H](N)[C@H](O)[C@H](C)O1 [Doxorubicin]
Kin (brain [1]): 0.25 µL/s/g
Vd (brain [9]; mouse, in vivo): < 100 µL/g

CC1(C)S[C@@H]2[C@H](NC(=O)Cc3ccccc3)C(=O)N2[C@H]1C(=O)O [Benzylpenicillin]
Kin (brain [1]): 0.15 µL/s/g

Dermorphin [reference compound]
Kin (unidirectional influx rate), linear Gjedde-Patlak model ([2]; 125I-radioiodinated peptide, IV jugular vein 200 μl (30000 cpm/μl), anesthetized female ICR-CD-1 mice, 1-15 min, brain/serum radioactivity (gamma counter) vs exposure time, whole brain, ± 65% confidence limits, pVEC, SynB3, TP10: two experiments fitted together): 0.63 ± 0.10 µL/g/min
Vi (initial brain distribution volume), linear Gjedde-Patlak model ([2]; 125I-radioiodinated, IV, ICR-CD-1 mice, MTR 1-15 min, whole brain, ± 65% confidence limits): 13.98 ± 0.79 µL/g
K1 (unidirectional clearance, slope of the initial phase), biphasic model [2, 12]: 2.54 ± 0.50 µL/g/min
K (net clearance, slope of the plateau phase), biphasic model [2, 12]: 0.03 ± 0.06 µL/g/min
Vg (tissue brain distribution volume), biphasic model [2, 12]: 13.72 ± 2.17 µL/g
Difference in brain influx rates between the eight dissected brain regions ([5]; comparison of slopes (Kin), Prism 6, P threshold 0.05, ICR-CD-1 mice): no statistically significant difference
Relative tissue distribution [10]: high liver distributions

CC(C)c1nc(CN(C)C(=O)N[C@H](C(=O)N[C@@H](Cc2ccccc2)C[C@H](O)[C@H](Cc2ccccc2)NC(=O)OCc2cncs2)C(C)C)cs1 [Ritonavir]
Brain drug level (brain [11]): 0.1 µg/g

CN1CC[C@]23c4c5ccc(O)c4O[C@H]2[C@@H](O[C@@H]2O[C@H](C(=O)O)[C@@H](O)[C@H](O)[C@H]2O)C=C[C@H]3[C@H]1C5 [Morphine-6-glucuronide]
Kin (brain [9]; in situ brain perfusion in mice, ref [6] of S1 Table): 0.024 µL/s/g
